Test results taken from patent US20180186814A1, “TRICYCLIC COMPOUND HAVING SULFINYL OR SULFONYL” (Shionogi & Co., Ltd., priority 2015, published 2018).
≈ marks a conversion by molar mass, not a printed value.

How the values were obtained:
Type in all cases: cell-based
E. cloacae ATCC13047 = experiment: MIC by microbroth dilution (CLSI), strain No. 1; settings: E. cloacae ATCC13047, AmpC, ceftazidime-resistant, cefepime-sensitive, cation-adjusted Mueller-Hinton broth; for MIC: Enterobacter cloacae, read-out: minimum inhibitory concentration (MIC), Strain No. 1
Protocol: (§1) The minimum inhibitory concentration (MIC) was measured by the microbroth dilution method in accordance with the procedures recommended by CLSI (Clinical and Laboratory Standards Institute) using 1×10^5 CFU/mL as an inoculum dose and a cation-adjusted Mueller-Hinton broth as a test medium.
(§2) The strains used are as described in the table below.

K. pneumoniae SR01453 = experiment: MIC by microbroth dilution (CLSI), strain No. 3; settings: K. pneumoniae SR01453, NDM-1, MBL-producing strain, carbapenem-resistant, cation-adjusted Mueller-Hinton broth; for MIC: Klebsiella pneumoniae, read-out: minimum inhibitory concentration (MIC), Strain No. 3
Protocol: as §1, §2

K. pneumoniae NCTC13443 = experiment: MIC by microbroth dilution (CLSI), strain No. 4; settings: K. pneumoniae NCTC13443, NDM-1, MBL-producing strain, carbapenem-resistant, cation-adjusted Mueller-Hinton broth; for MIC: Klebsiella pneumoniae, read-out: minimum inhibitory concentration (MIC), Strain No. 4
Protocol: as §1, §2

E. cloacae SR36276 = experiment: MIC by microbroth dilution (CLSI), strain No. 5; settings: E. cloacae SR36276, AmpC, highly AmpC-producing strain, ceftazidime-resistant, cefepime-sensitive, cation-adjusted Mueller-Hinton broth; for MIC: Enterobacter cloacae, read-out: minimum inhibitory concentration (MIC), Strain No. 5
Protocol: as §1, §2

E. coli SR09613 = experiment: MIC by microbroth dilution (CLSI), strain No. 6; settings: for MIC: Escherichia coli, SR09613, read-out: minimum inhibitory concentration (MIC), Strain No. 6; for minimum inhibitory concentration (MIC), Strain No. 6: E. coli SR09613, CMY-2 type, plasmid AmpC-producing strain, ceftazidime-resistant, cefepime-sensitive, cation-adjusted Mueller-Hinton broth
Protocol: as §1, §2

E. coli SR09616 = experiment: MIC by microbroth dilution (CLSI), strain No. 7; settings: for MIC: Escherichia coli, SR09616, read-out: minimum inhibitory concentration (MIC), Strain No. 7; for minimum inhibitory concentration (MIC), Strain No. 7: E. coli SR09616, CMY-2 type, plasmid AmpC-producing strain, ceftazidime-resistant, cefepime-sensitive, cation-adjusted Mueller-Hinton broth
Protocol: as §1, §2

Structure (SMILES) | MIC (E. cloacae ATCC13047) | MIC (K. pneumoniae SR01453) | MIC (K. pneumoniae NCTC13443) | MIC (E. cloacae SR36276) | MIC (E. coli SR09613) | MIC (E. coli SR09616) | minimum inhibitory concentration (MIC), Strain No. 1 (E. cloacae ATCC13047) | minimum inhibitory concentration (MIC), Strain No. 3 (K. pneumoniae SR01453) | minimum inhibitory concentration (MIC), Strain No. 4 (K. pneumoniae NCTC13443) | minimum inhibitory concentration (MIC), Strain No. 5 (E. cloacae SR36276) | minimum inhibitory concentration (MIC), Strain No. 6 (E. coli SR09613) | minimum inhibitory concentration (MIC), Strain No. 7 (E. coli SR09616)
N#CCO/N=C(\C(=O)N[C@@H]1C(=O)N2[C@@H]1[S@@+]([O-])C[C@@H]1CC(=O)O[C@@]12C(=O)O)c1csc(N)n1 [Compound I-039] | 0.5 µg/mL (≈ 1.04 µM) | 0.125 µg/mL (≈ 0.259 µM) | 4 µg/mL (≈ 8.29 µM) | 2 µg/mL (≈ 4.15 µM) | 0.25 µg/mL (≈ 0.518 µM) | 1 µg/mL (≈ 2.07 µM) |  |  |  |  |  | 
Nc1nc(/C(=N/OC[C@@H](O)CO)C(=O)N[C@@H]2C(=O)N3[C@@H]2[S@@+]([O-])C[C@@H]2CC(=O)O[C@@]23C(=O)O)cs1 [Compound I-044] | 0.5 µg/mL (≈ 0.966 µM) | 1 µg/mL (≈ 1.93 µM) | 2 µg/mL (≈ 3.86 µM) | 1 µg/mL (≈ 1.93 µM) | 0.25 µg/mL (≈ 0.483 µM) | 1 µg/mL (≈ 1.93 µM) |  |  |  |  |  | 
Nc1nc(/C(=N/OCS(=O)(=O)O)C(=O)N[C@@H]2C(=O)N3[C@@H]2[S@@+](O)C[C@@H]2CC(=O)O[C@@]23C(=O)O)cs1 [Compound I-047] |  |  |  |  |  |  | 0.25 µg/mL | 0.25 µg/mL | 2 µg/mL | 0.25 µg/mL | 0.063 µg/mL | 0.25 µg/mL
CONC(=O)CO/N=C(\C(=O)N[C@@H]1C(=O)N2[C@@H]1[S+](O)C[C@@H]1CC(=O)O[C@@]12C(=O)O)c1csc(N)n1 (some centres unmarked) [Compound I-048] | 0.25 µg/mL | 0.125 µg/mL | 4 µg/mL | 1 µg/mL | 0.125 µg/mL | 0.5 µg/mL |  |  |  |  |  | 
Nc1nc(/C(=N/OCC(=O)NO)C(=O)N[C@@H]2C(=O)N3[C@@H]2[S+](O)C[C@@H]2CC(=O)O[C@@]23C(=O)O)cs1 (some centres unmarked) [Compound I-049] |  |  |  |  |  |  | 0.125 µg/mL | 0.063 µg/mL | 2 µg/mL | 0.5 µg/mL | 0.063 µg/mL | 0.5 µg/mL
Nc1nc(/C(=N/OC[C@H](O)CO)C(=O)N[C@@H]2C(=O)N3[C@@H]2[S@@+]([O-])C[C@@H]2CC(=O)O[C@@]23C(=O)O)cs1 [Compound I-050] | 0.5 µg/mL (≈ 0.966 µM) | 0.5 µg/mL (≈ 0.966 µM) | 4 µg/mL (≈ 7.73 µM) | 1 µg/mL (≈ 1.93 µM) | 0.5 µg/mL (≈ 0.966 µM) | 4 µg/mL (≈ 7.73 µM) |  |  |  |  |  | 
Nc1nc(/C(=N/OC(CO)CO)C(=O)N[C@@H]2C(=O)N3[C@@H]2[S@@+]([O-])C[C@@H]2CC(=O)O[C@@]23C(=O)O)cs1 [Compound I-052] | 0.063 µg/mL (≈ 0.122 µM) | ≤ 0.031 µg/mL | 0.5 µg/mL (≈ 0.966 µM) | 0.125 µg/mL (≈ 0.242 µM) | ≤ 0.031 µg/mL | 0.063 µg/mL (≈ 0.122 µM) |  |  |  |  |  | 
NC(=O)NCCO/N=C(\C(=O)N[C@@H]1C(=O)N2[C@@H]1[S@@+]([O-])C[C@@H]1CC(=O)O[C@@]12C(=O)O)c1csc(N)n1 [Compound I-056] | 0.5 µg/mL (≈ 0.944 µM) | 0.5 µg/mL (≈ 0.944 µM) |  | 2 µg/mL (≈ 3.78 µM) | 0.5 µg/mL (≈ 0.944 µM) | 2 µg/mL (≈ 3.78 µM) |  |  |  |  |  | 
